Assay results: patent publication US10111874B2, “Combination therapies for treatment of cancer” (Araxes Pharma LLC, priority 2014, dated 2018)

Biological target: T1, KRAS G12C 1-169, his-tagged protein, GDP-loaded (Homo sapiens, UniProt P01116, G12C)
T1 construct: KRAS G12C 1-169, his-tagged protein, GDP-loaded
Test: Biochemical assay: covalent binding to KRAS G12C analyzed by mass spectrometry; further: test concentration or dose not given here
Details: compounds 48-246, measured at 2 h

T1 sequence (P01116 1-169 isoform P01116-2 G12C): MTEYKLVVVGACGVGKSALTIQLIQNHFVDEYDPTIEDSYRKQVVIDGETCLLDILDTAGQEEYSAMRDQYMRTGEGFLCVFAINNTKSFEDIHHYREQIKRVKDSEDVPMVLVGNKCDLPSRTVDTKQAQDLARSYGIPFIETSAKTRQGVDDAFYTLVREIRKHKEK

C=CC(=O)N1CCN(c2ncnc3cc(-c4nc(N)ncc4C)c(Cl)cc23)CC1 [Compound I-179, 1-(4-(7-(2-amino-5-methylpyrimidin-4-yl)-6-chloroquinazolin-4-yl)piperazin-1-yl)prop-2-en-1-one]
Binding %: + (+indicates binding activity from 5% to 25%)

C=CC(=O)N1CCN(c2ncnc3cc(-c4cccc5cncnc45)c(Cl)cc23)CC1 [Compound I-180, 1-(4-(6-chloro-7,8′-biquinazolin-4-yl)piperazin-1-yl)prop-2-en-1-one]
Binding %: + (+indicates binding activity from 5% to 25%)

C=CC(=O)N1CCN(c2ncnc3cc(-n4ccc(Cl)cc4=O)c(Cl)cc23)CC1 [Compound I-181, 1-(4-(4-acryloylpiperazin-1-yl)-6-chloroquinazolin-7-yl)-4-chloropyridin-2(1H)-one]
Binding %: + (+indicates binding activity from 5% to 25%)

C=CC(=O)N1CCN(c2c(C#N)cnc3cc(-c4ccccc4O)c(Cl)cc23)CC1 [Compound I-182, 4-(4-acryloylpiperazin-1-yl)-6-chloro-7-(2-hydroxyphenyl)quinoline-3-carbonitrile]
Binding %: +++ (+++indicates binding activity greater than 50% and up to 75%)

C=CC(=O)N1CCN(c2ncnc3cc(-c4ccccc4-c4cn[nH]c4)c(Cl)cc23)CC1 [Compound I-183, 1-(4-(7-(2-(1H-pyrazol-4-yl)phenyl)-6-chloroquinazolin-4-yl)piperazin-1-yl)prop-2-en-1-one]
Binding %: +++ (+++indicates binding activity greater than 50% and up to 75%)

C=CC(=O)N1CCN(c2c(C#N)cnc3cc(-c4cc(O)ccc4Cl)c(Cl)cc23)CC1 [Compound I-184, 4-(4-acryloylpiperazin-1-yl)-6-chloro-7-(2-chloro-5-hydroxyphenyl)quinoline-3-carbonitrile]
Binding %: ++++ (++++indicates binding activity greater than 75%)

C=CC(=O)N1CCN(c2ncnc3cc(-c4cccs4)c(Cl)cc23)CC1 [Compound I-185, 1-(4-(6-chloro-7-(thiophen-2-yl)quinazolin-4-yl)piperazin-1-yl)prop-2-en-1-one]
Binding %: ++ (++indicates binding activity greater than 25% and up to 50%)

C=CC(=O)N1CCN(c2ncnc3cc(-c4ccccc4-c4nccs4)c(Cl)cc23)CC1 [Compound I-186, 1-(4-(6-chloro-7-(2-(thiazol-2-yl)phenyl)quinazolin-4-yl)piperazin-1-yl)prop-2-en-1-one]
Binding %: +++ (+++indicates binding activity greater than 50% and up to 75%)

C=CC(=O)N1CCN(c2ncnc3cc(-c4ccccc4-c4cncs4)c(Cl)cc23)CC1 [Compound I-187, 1-(4-(6-chloro-7-(2-(thiazol-5-yl)phenyl)quinazolin-4-yl)piperazin-1-yl)prop-2-en-1-one]
Binding %: +++ (+++indicates binding activity greater than 50% and up to 75%)

C=CC(=O)N1CCN(c2ncnc3cc(-c4cc(-c5cn[nH]c5)ccc4F)c(Cl)cc23)CC1 [Compound I-188, 1-(4-(6-chloro-7-(2-fluoro-5-(1H-pyrazol-4-yl)phenyl)quinazolin-4-yl)piperazin-1-yl)prop-2-en-1-one]
Binding %: +++ (+++indicates binding activity greater than 50% and up to 75%)

C=CC(=O)N1CCN(C2=c3cc(Cl)c(-c4ccccc4F)cc3=NCN2C(N)=O)CC1 [Compound I-189, 4-(4-acryloylpiperazin-1-yl)-6-chloro-7-(2-fluorophenyl)quinazolin-3-carboxamide]
Binding %: ++ (++indicates binding activity greater than 25% and up to 50%)

C=CC(=O)N1CCN(c2ncnc3cc(-c4cnc(N)nc4C)c(Cl)cc23)CC1 [Compound I-190, 1-(4-(7-(2-amino-4-methylpyrimidin-5-yl)-6-chloroquinazolin-4-yl)piperazin-1-yl)prop-2-en-1-one]
Binding %: + (+indicates binding activity from 5% to 25%)

C=CC(=O)N1CCN(c2ncnc3cc(-c4cc(NC)ccc4C)c(Cl)cc23)CC1 [Compound I-191, 1-(4-(6-chloro-7-(2-methyl-5-(methylamino)phenyl)quinazolin-4-yl)piperazin-1-yl)prop-2-en-1-one]
Binding %: +++ (+++indicates binding activity greater than 50% and up to 75%)

C=CC(=O)N1CCN(c2ncnc3cc(-c4c(F)cccc4C#N)c(Cl)cc23)CC1 [Compound I-192, 2-(4-(4-acryloylpiperazin-1-yl)-6-chloroquinazolin-7-yl)-3-fluorobenzonitrile]
Binding %: ++ (++indicates binding activity greater than 25% and up to 50%)

C=CC(=O)N1CCN(c2ncnc3cc(-c4ccc(F)cc4C(N)=O)c(Cl)cc23)CC1 [Compound I-193, 2-(4-(4-acryloylpiperazin-1-yl)-6-chloroquinazolin-7-yl)-5-fluorobenzamide]
Binding %: ++ (++indicates binding activity greater than 25% and up to 50%)

C=CC(=O)N1CCN(c2ncnc3cc(-c4c(F)cccc4OC)c(Cl)cc23)CC1 [Compound I-194, 1-(4-(6-chloro-7-(2-fluoro-6-methoxyphenyl)quinazolin-4-yl)piperazin-1-yl)prop-2-en-1-one]
Binding %: ++++ (++++indicates binding activity greater than 75%)

C#CC1CN(c2ncnc3cc(-c4ccc(F)cc4F)c(Cl)cc23)CCN1C(=O)C=C (centres unmarked) [Compound I-195, 1-(4-(6-chloro-7-(2,4-difluorophenyl)quinazolin-4-yl)-2-ethynylpiperazin-1-yl)prop-2-en-1-one]
Binding %: ++++ (++++indicates binding activity greater than 75%)

C=CC(=O)N1CCN(c2c(C#N)cnc3cc(-c4cc(O)ccc4F)c(Cl)cc23)CC1 [Compound I-196, 4-(4-acryloylpiperazin-1-yl)-6-chloro-7-(2-fluoro-5-hydroxyphenyl)quinoline-3-carbonitrile]
Binding %: ++++ (++++indicates binding activity greater than 75%)

C=CC(=O)N1CCN(c2ncnc3cc(-c4cc(F)ccc4C(N)=O)c(Cl)cc23)CC1 [Compound I-197, 2-(4-(4-acryloylpiperazin-1-yl)-6-chloroquinazolin-7-yl)-4-fluorobenzamide]
Binding %: ++ (++indicates binding activity greater than 25% and up to 50%)

C=CC(=O)N1CCN(c2ncnc3cc(-c4csc5ccccc45)c(Cl)cc23)CC1 [Compound I-198, 1-(4-(7-(benzo[d]thiophen-3-yl)-6-chloroquinazolin-4-yl)piperazin-1-yl)prop-2-en-1-one]
Binding %: ++++ (++++indicates binding activity greater than 75%)

C=CC(=O)N1CCN(c2ncnc3cc(-c4cccc5c4OC(F)(F)O5)c(Cl)cc23)CC1 [Compound I-200, 1-(4-(6-chloro-7-(2,2-difluorobenzo[d][1,3]dioxol-4-yl)quinazolin-4-yl)piperazin-1-yl)prop-2-en-1-one]
Binding %: ++ (++indicates binding activity greater than 25% and up to 50%)

C=CC(=O)N1CCN(c2ncnc3cc(-c4cccc5c4OCCO5)c(Cl)cc23)CC1 [Compound I-201, 1-(4-(6-chloro-7-(2,3-dihydrobenzo[d][1,4]dioxol-5-yl)quinazolin-4-yl)piperazin-1-yl)prop-2-en-1-one]
Binding %: +++ (+++indicates binding activity greater than 50% and up to 75%)

C=CC(=O)N1CCN(c2ncnc3cc(-c4c(OC)ccc5ccccc45)c(Cl)cc23)CC1 [Compound I-202, 1-(4-(6-chloro-7-(2-methoxynaphthalen-1-yl)quinazolin-4-yl)piperazin-1-yl)prop-2-en-1-one]
Binding %: +++ (+++indicates binding activity greater than 50% and up to 75%)

C=CC(=O)N1CCN(c2ncnc3cc(-c4c(O)ccc(F)c4F)c(Cl)cc23)CC1 [Compound I-203, 1-(4-(6-chloro-7-(2,3-difluoro-6-hydroxyphenyl)quinazolin-4-yl)piperazin-1-yl)prop-2-en-1-one]
Binding %: ++++ (++++indicates binding activity greater than 75%)

C=CC(=O)N1CCN(c2ncnc3cc(-c4ccc(F)cc4F)c(C(F)(F)F)cc23)CC1 [Compound I-204, 1-(4-(7-(2,4-difluorophenyl)-6-(trifluoromethyl)quinazolin-4-yl)piperazin-1-yl)prop-2-en-1-one]
Binding %: +++ (+++indicates binding activity greater than 50% and up to 75%)

C=CC(=O)N1CCN(c2ncnc3cc(-c4cccc5c4CCC(=O)N5)c(Cl)cc23)CC1 [Compound I-205, 5-(4-(4-acryloylpiperazin-1-yl)-6-chloroquinazolin-7-yl)-3,4-dihydroquinolin-2(1H)-one]
Binding %: + (+indicates binding activity from 5% to 25%)

C=CC(=O)N1CCN(c2ncnc3cc(-c4cc(O)c(F)cc4F)c(Cl)cc23)CC1 [Compound I-206, 1-(4-(6-chloro-7-(2,4-difluoro-5-hydroxyphenyl)quinazolin-4-yl)piperazin-1-yl)prop-2-en-1-one]
Binding %: ++++ (++++indicates binding activity greater than 75%)

C=CC(=O)N1CCN(c2ncnc3cc(-c4cc(O)ccc4Cl)c(C(F)(F)F)cc23)CC1 [Compound I-207, 1-(4-(7-(2-chloro-5-hydroxyphenyl)-6-(trifluoromethyl)quinazolin-4-yl)piperazin-1-yl)prop-2-en-1-one]
Binding %: ++++ (++++indicates binding activity greater than 75%)

C=CC(=O)N1CCN(c2ncnc3cc(-c4c(O)cccc4F)c(C(F)(F)F)cc23)CC1 [Compound I-208, 1-(4-(7-(2-fluoro-6-hydroxyphenyl)-6-(trifluoromethyl)quinazolin-4-yl)piperazin-1-yl)prop-2-en-1-one]
Binding %: ++++ (++++indicates binding activity greater than 75%)

C=CC(=O)N1CCN(c2ncnc3c(F)c(-c4ccccc4C(F)(F)F)c(Cl)cc23)CC1 [Compound I-209, 1-(4-(6-chloro-8-fluoro-7-(2-(trifluoromethyl)phenyl)quinazolin-4-yl)piperazin-1-yl)prop-2-en-1-one]
Binding %: ++++ (++++indicates binding activity greater than 75%)

C=CC(=O)N1CCN(c2ncnc3c(Cl)c(-c4ccccc4F)c(Cl)cc23)CC1 [Compound I-210, 1-(4-(6,8-dichloro-7-(2-fluorophenyl)quinazolin-4-yl)piperazin-1-yl)prop-2-en-1-one]
Binding %: ++++ (++++indicates binding activity greater than 75%)

C=CC(=O)N1CCN(c2ncnc3cc(-c4ccccc4C(N)=O)c(C(F)(F)F)cc23)CC1 [Compound I-211, 2-(4-(4-acryloylpiperazin-1-yl)-6-(trifluoromethyl)quinazolin-7-yl)benzamide]
Binding %: + (+indicates binding activity from 5% to 25%)
